Patent US20020150961A1, “Activity-dependent cysteine protease profiling reagent” (The Regents of the University of California Office of …, priority 2000, published 2002)

Assays:
cathepsin B = target: T1, cathepsin B (Mus musculus, UniProt P10605); assay: Competition labeling in DC2.4 lysates with cathepsin B-specific 125I-MB-074; format: biochemical; settings: P2 library preincubation
T1 construct: This method allowed analysis of cathepsin B specificity in crude extracts; endogenous in cells; host or cells: DC2.4 dendritic cell line
Protocol: (§1) Lysates from the dendritic cell line DC2.4 were prepared at pH 5.5 as described above. Purified cathepsin H was purchased from Calbiochem (San Diego, Calif.). Samples of lysates (100 μg total protein in 100 μL buffer B; 50 mM Tris pH 5.5, 5 mM MgC12, 2 mM DTT) or purified cathepsin H (1 μg protein in 100 μL buffer A) were preincubated with 50 μM of each library member (diluted from 5 mM DMSO stocks) for 2 hrs at room temperature. Samples were then labeled by addition of either ^125I-DCG-04 or ^125I-MB-074 to each sample followed by further incubation at room temperature for 1 hour. Samples were quenched by the addition of 4×sample buffer to 1×followed by boiling for 5 minutes. Samples were analyzed by SDS-PAGE followed by autoradiography.

[1] = test system: multiple proteases in DC2.4 lysates; assay: Competition labeling in DC2.4 lysates with 125I-DCG-04; format: biochemical; settings: for potency and selectivity, competition of 125I-DCG-04 labeling of multiple polypeptides: 50 μM library member, DC2.4 lysates, pH 5.5
Protocol: as §1, with “Samples were then labeled by addition of either ^125I-DCG-04 or ^125I-MB-074 to each sample followed by further incubation at room temperature for 1 hour.” left out

invasive cells = settings: treatment of invasive cells, literature; cited from earlier work
[2] = test system: papaine family of cysteine proteases; settings: literature; cited from earlier work
[3] = test system: papain family cysteine proteases in DC2.4 cells; assay: In situ fluorescence labeling of DC2.4 cells; format: cell-based; settings: pre-treatment 10 mM for 1 hour
Protocol: Dendritic cells (DC2.4) were plated on a 24-well dish (10^5 cells/well) embedded with sterile microscope cover slips, in RPMI medium containing 10% FBS. After 16 hours, cells were washed with 1 ml TC-199 medium and incubated with […] of Bodipy-DCG-04 in TC-199 for 12 hours at 37° C. Cells were washed 3 times with 1 ml TC-199 and incubated for 5 hr in probe-free medium. Subsequently, cells were either lysed in buffer A and analyzed on a 12.5% SDS-PAGE using a fluorescent scanner or viewed under a fluorescent microscope.

[4] = test system: cysteine proteases in DC2.4 dendritic cell extracts; assay: Direct labeling of DC2.4 total cell extracts with probes (affinity blot / autoradiography); format: binding
Protocol: Tissues were dounce-homogenized in buffer A (50 mM Tris pH 5.5, 1 mM DTT, 5 mM MgCl2, 250 mM sucrose) and extracts centrifuged at 1,100×g for 10 min at 4° C. The resulting supernatant was centrifuged at 22,000×g for 30 min at 4° C. and final supernatants used for all labeling experiments. Cells were lysed using glass beads (<104 microns) in buffer A and supernatants centrifuged for 15,000×g for 15 min at 4° C. The total protein concentration of the final supernatants (soluble) was determined by BCA protein quantification (Pierce).
Equivalent amounts of radioactive inhibitor stock solutions (approx. 10^6 cpm per sample) were used for all labeling experiments. Samples of lysates (100 μg total protein in 100 μL buffer; 50 mM Tris pH 5.5, 5 mM MgC12, 2 mM DTT) were labeled for 1 hour at 25° C. unless noted otherwise. Samples were quenched by dilution of 4×SDS sample buffer to 1×(for 1D SDS-PAGE) or by dissolving urea to a final concentration of 9.5 M (for 2D SDS-PAGE).
Quenched DCG-04 labeled samples were separated by SDS/PAGE […] and transferred to nitrocellulose using semi-dry apparatus. Membranes were blocked using phosphate buffered saline (PBS) and 5% (w/v) dry milk for 30 min at 25° C. Blots were washed briefly with PBS/0.2% Tween (PBS-Tween) and treated with avidin-horseradish peroxidase conjugate (VectaStain) in PBS-Tween for 30 min. at 25° C. […]

[5] = test system: cysteine proteases in rat kidney; assay: Affinity purification and identification of DCG-04 modified proteins from rat kidney; format: binding; settings: monomeric-avidin purification, mass spectrometry
Protocol: A soluble fraction of rat kidney lysate (80 mg total protein) was diluted into anion exchange starting buffer (50 mM Tris, 50 mM NaCl, pH 9.0). The lysate was applied to a […] anion exchange column (Amersham Pharmacia Biotech) and eluted using a linear gradient of 0.05-1M NaCl, pH 9. An aliquot from each fraction (50 μL) was incubated with 50 μM DCG-04 at 25° C. for 1hr and analyzed on a 12.5% SDS/PAGE gel followed by affinity blotting as described above. The fractions containing peak labeling of the 25 kD-30 kD bands were pooled and DCG-04 was added to a final concentration of 50 μM. Pools were incubated at 25° C. for 2 hours and then 12 hours at 4° C. Unbound inhibitor was removed and buffer was exchanged with PBS using a PD-10 column (Pharmacia). Samples were applied to a monomeric-avidin column (1 ml bed volume; Pierce) and the column was washed with 6×1 ml fractions of 1M NaCl. Bound proteins were eluted with 0.5 ml fractions of 2 mM Biotin/100 mM NH4HCO3 buffer. All wash and eluent fractions were analyzed by SDS/PAGE and silver staining. The fractions containing the labeled 25-30 kD bands were pooled, the volume reduced by lyophilization and solid urea added to 9.5 M along with BME to 5%, NP-40 to 2%, pH 5-7 ampholytes to 1.6% and pH 3.5-10 ampholytes to 0.4%. […]

[6] = test system: papain family proteases in rat liver; assay: Affinity purification and identification of DCG-04 labeled proteases from rat liver; format: binding; settings: single-step affinity purification, LC-MS-TOF CID
Protocol: Protein lysates prepared in buffer A (50 mM Acetate buffer, 5 mM DTT, 0.1% Triton X-100) were incubated with […] for 1.5 hours at room temperature. After incubation the protein lysate was passed through a PD10 column pre-equilibrated with buffer B (50 mM Tris-Base 7.4, 150 mM NaCl) and proteins were eluted with the same buffer. SDS was added to eluted proteins to a final concentration of 0.5% and the solution boiled for 10 minutes, diluted 2.5 fold with buffer B (to reduce SDS concentration to 0.2%) and incubated with […] of pre-washed Streptavidin beads for 1 hour at room temperature. Beads were washed 5 times with buffer B, and bound proteins were eluted by boiling for 10 minutes in the presence of […]. For 2D analysis, samples in SDS sample buffer were diluted 1:1 with IEF sample buffer ([…], 5% BME, 2% NP-40, 1.6% pH 5-7 ampholines and 0.4% pH 3.5-10 ampholines) and pure NP-40 was added (25% of volume of sample). Samples were applied to IEF tube gels and electrophoresed at 1000V for 13 hours followed by separation in the second dimension on 15% SDS-PAGE gels. […] The mass range recorded in survey acquisitions was m/z 300-1400. […] All the data were measured using a two point external calibration. […]

T1 sequence (P10605 80-333 limits assumed): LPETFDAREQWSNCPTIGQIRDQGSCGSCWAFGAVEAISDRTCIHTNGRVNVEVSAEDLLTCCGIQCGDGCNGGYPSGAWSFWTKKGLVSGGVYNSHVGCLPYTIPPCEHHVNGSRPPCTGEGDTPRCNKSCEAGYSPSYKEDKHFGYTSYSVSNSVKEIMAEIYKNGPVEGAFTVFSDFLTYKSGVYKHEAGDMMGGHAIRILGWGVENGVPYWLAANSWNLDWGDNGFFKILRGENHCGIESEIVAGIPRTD

Row | Molecule | activity, competition of 125I-MB-074 labeling of cathepsin B (cathepsin B) | potency and selectivity, competition of 125I-DCG-04 labeling of multiple polypeptides [1] | further results
1 | CC[C@H](C)[C@H](N)C(=O)O [isoleucine] | highest activity | highest activity and the lowest amount of specificity | –
2 | CC(C)C[C@H](NC(=O)[C@H]1O[C@@H]1C(=O)O)C(=O)NCCCCN=C(N)N [E-64] | – | – | effect on cellular invasion (invasive cells): block in cellular invasion into a synthetic matrix; reactivity toward cysteine proteases [2]: broadly reactive; competition of 125I-DCG-04 labeling ([1]; increasing concentrations, preincubation, DC2.4 extracts): effectively competed; inhibition of in situ protease labeling by green-DCG-04 [3]: completely inhibited
3 | CC(C)[C@H](N)C(=O)O [valine containing compound] | highest activity | competed for polypeptides 1, 2 and cathepsin B but had little effect on the remaining species | –
4 | CC(C)CC(NC(=O)C1OC1C(=O)O)C(=O)NCCc1ccc(O)cc1 (stereo not shown) [JPM-565, reference compound] | – | – | labeling as detected by affinity blotting ([4]; non-radiolabeled compound, DC2.4 extracts): no labeling
5 | N[C@@H](Cc1ccc(O)cc1)C(=O)O [tyrosine] | highest activity followed by the aromatic amino acids | specificity for polypeptides 2, 3, 4, and 5 | –
6 | N[C@@H](CC(=O)O)C(=O)O [aspartic acid] | – | relatively poor activity overall, they showed some degree of specificity against polypeptide 2 | –
7 | CCCC[C@H](N)C(=O)O [norleucine] | highest activity | highest activity and the lowest amount of specificity | –
8 | DCG-04 | highest activity | highest activity and the lowest amount of specificity | active cysteine proteases identified via probe [5]: cathepsin B, H, and L; labeling of major 20-40 kDa species after preheating of samples ([4]; preheated to 100° C. for 1 min before adding compound): lost upon heat denaturation; proteases identified via probe [6]: cathepsins Z, H, C and J
9 | N[C@@H](Cc1ccccc1)C(=O)O [phenylalanine] | highest activity followed by the aromatic amino acids | specificity for polypeptides 2, 3, 4, and 5 | –
10 | NCC(=O)O [glycine] | – | relatively poor activity overall, they showed some degree of specificity against polypeptide 2 | –
